Assay results taken from publication PMC4326489, “Efficacy and pharmacokinetic evaluation of a novel anti-malarial compound (NP046) in a mouse model” (Malaria Journal, 2015).
“And” between values parts separate entries of the source, which are not always exact repeats. Equal values may be shown once. Read-outs that look alike come from different tables or passages of the source.

Test: In vivo PK evaluation in mice (blood, LC-MS/MS, non-compartmental analysis)
Set-up: species or system male C57BL/6 mice
Conditions: for concentration at 7 h: read-out: mean blood concentration at seven hours after dosing
Method: The in vivo PK properties of NP046 were evaluated following oral (50 and 10 mg/kg) and IV (5 mg/kg) administration of the compound in water to male C57BL/6 mice (n = 5). Blood samples were collected via tail bleeding in heparinized tubes at predetermined sampling times on ice, and were stored at -80°C until analysis. Despite the critical problem of obtaining numerous blood samples from a mouse without compromising the health/safety of the animal, blood samples at all the sampling times, i.e. 0.17, 0.5, 1, 3, 5 and 7 hours for the IV dose groups, and 0.5, 1, 3, 5 and 7 hours for the oral dose groups were collected from each mouse. The extraction volume during sample analysis was targeted at the lowest possible volume (20 μl) thereby minimizing the total volume of blood harvested from the animal.
Blood samples collected from mice following the administration of NP046 together with the calibration standards (STDs) and quality controls (QCs) of NP046 were analyzed using a validated LC-MS/MS assay (for details of the LC-MS/MS assay see Additional file 2). Concentration vs time profiles were constructed and using Summit PK software the data were processed to obtain the PK properties of NP046.
Blood samples collected from mice after the administration of NP046, together with the calibration standards (STDs) and quality controls (QCs), were analysed using a fully validated LC-MS/MS assay. NP046 concentrations were detectable for up to seven hours after oral and IV dosing. Concentration vs time profiles (Figures 3 and 4) were constructed and the data processed with Summit PK software (non-compartmental analysis) to obtain the PK parameters as presented in Table 2. The LC-MS/MS method performed very well; NP046 concentrations in the mice were detectable for up to seven hours after both 50 and 10 mg/kg oral dosing, with mean concentrations of 0.05 and 0.02 μM, respectively.

[1] = male, C57BL/6, whole blood, IV 5 mg/kg, mouse
[2] = male, C57BL/6, whole blood, oral 10 mg/kg, mouse
[3] = male, C57BL/6, whole blood, oral 50 mg/kg, mouse

Question: What does the source list for `Oc1cc(CCCc2ccc(F)cc2)ccc1CN1CCCCC1` [NP046, 5-(3-(4-fluorophenyl)propyl)-2-(piperidin-1-ylmethyl)phenol]?
Answer: AUC 0 - ∞ (IV 5 mg/kg, mouse blood): 248 ± 12.6 µmol·min/L; half-life (male, C57BL/6, whole blood, other: oral and IV (range over both), range over oral (50 and 10 mg/kg) and IV (5 mg/kg) groups, mouse, read-out: mean half-life): 3.1 to 4.4 h; Vd [1]: 16.9 ± 1.3 L/kg; half-life (male, C57BL/6, whole blood, IV 5 mg/kg, mouse blood, mean ± S.E.M, n = 5, read-out: Apparent t 1/2 (converted)): 3.2 ± 0.35 h; clearance (male, C57BL/6, whole blood, IV 5 mg/kg, mouse, read-out: Blood CL total): 3.73 ± 0.18 L/h/kg; concentration at 7 h [1]: 0.14 µM; Tmax [2]: 0.8 h; bioavailability [2]: 6 ± 2.9%; Cmax (male, C57BL/6, whole blood, oral 10 mg/kg, mouse blood): 0.13 ± 0.06 µM; half-life (male, C57BL/6, whole blood, oral 10 mg/kg, mouse blood, mean ± S.E.M, n = 5, read-out: Apparent t 1/2 (converted)): 3.1 ± 0.46 h; concentration at 7 h [2]: 0.02 µM; Tmax [3]: 0.5 h; bioavailability [3]: 3.2 ± 0.47%; Cmax (male, C57BL/6, whole blood, oral 50 mg/kg, mouse blood): 0.47 ± 0.1 µM; half-life (male, C57BL/6, whole blood, oral 50 mg/kg, mouse blood, mean ± S.E.M, n = 5, read-out: Apparent t 1/2 (converted)): 4.4 ± 0.6 h; concentration at 7 h [3]: 0.05 µM; AUC 0 - ∞ (oral 10 mg/kg, mouse blood, 10 mg/kg): 30 µmol·min/L and 30 ± 14.7 µmol·min/L; AUC 0 - ∞ (oral 50 mg/kg, mouse blood, 50 mg/kg): 80 µmol·min/L and 80 ± 8.8 µmol·min/L
